Results as given in the supplement of paper PMC4932681.

Experiments:
[1] = test system: T-47D Tam2; assay: relative IC50 (midpoint of fitted logistic curve, plateau may be below 50% inhibition; CellTiter-Glo viability); higher = less potent; conditions: 4-OH-tamoxifen in medium 1 µM; 72 h
Method in brief: (§1)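 CellTiter-Glo viability was the readout, taken on a PHERAstar and normalised to vehicle-only and positive controls. It was measured after breast cancer cell lines and their resistant derivatives spent 72 h at 37 °C in 384-well plates containing library drugs at five concentrations spanning a 10 000-fold range, with 1 μM of the selecting drug in the medium of resistant lines. From logistic dose–response fits in the Breeze pipeline came drug sensitivity score, relative IC50 (curve midpoint) and top-dose inhibition.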

[2] = test system: T-47D; assay: as above; conditions: 72 h
Method in brief: as §1

[3] = test system: BT-474 Tam2; assay: as above; conditions: 4-OH-tamoxifen in medium 1 µM; 72 h
Method in brief: as §1

[4] = test system: MCF-7; assay: as above; conditions: 72 h
Method in brief: as §1

[5] = test system: BT-474; assay: as above; conditions: 72 h
Method in brief: as §1

[6] = test system: BT-474 Tam1; assay: as above; conditions: 4-OH-tamoxifen in medium 1 µM; 72 h
Method in brief: as §1

[7] = test system: ZR-75-1 Tam1; assay: as above; conditions: 4-OH-tamoxifen in medium 1 µM; 72 h
Method in brief: as §1

[8] = test system: ZR-75-1; assay: as above; conditions: 72 h
Method in brief: as §1

[9] = test system: ZR-75-1 Tam2; assay: as above; conditions: 4-OH-tamoxifen in medium 1 µM; 72 h
Method in brief: as §1

[10] = test system: T-47D Tam1; assay: as above; conditions: 4-OH-tamoxifen in medium 1 µM; 72 h
Method in brief: as §1

[11] = test system: MCF-7 Tam1; assay: drug sensitivity score (DSS) (DSS (dimensionless)); higher = more sensitive; extreme values may be limits of the assay; conditions: 4-OH-tamoxifen in medium 1 µM; 72 h
Method in brief: as §1

[12] = test system: T-47D Tam2; assay: as above; conditions: 4-OH-tamoxifen in medium 1 µM; 72 h
Method in brief: as §1

[13] = test system: T-47D; assay: as above; conditions: 72 h
Method in brief: as §1

[14] = test system: BT-474 Tam2; assay: as above; conditions: 4-OH-tamoxifen in medium 1 µM; 72 h
Method in brief: as §1

[15] = test system: MCF-7; assay: as above; conditions: 72 h
Method in brief: as §1

[16] = test system: BT-474; assay: as above; conditions: 72 h
Method in brief: as §1

[17] = test system: BT-474 Tam1; assay: as above; conditions: 4-OH-tamoxifen in medium 1 µM; 72 h
Method in brief: as §1

[18] = test system: ZR-75-1 Tam1; assay: as above; conditions: 4-OH-tamoxifen in medium 1 µM; 72 h
Method in brief: as §1

[19] = test system: ZR-75-1; assay: as above; conditions: 72 h
Method in brief: as §1

[20] = test system: ZR-75-1 Tam2; assay: as above; conditions: 4-OH-tamoxifen in medium 1 µM; 72 h
Method in brief: as §1

[21] = test system: T-47D Tam1; assay: as above; conditions: 4-OH-tamoxifen in medium 1 µM; 72 h
Method in brief: as §1

[22] = test system: MCF-7 Tam1; assay: relative IC50 (midpoint of fitted logistic curve, plateau may be below 50% inhibition; CellTiter-Glo viability); higher = less potent; conditions: 4-OH-tamoxifen in medium 1 µM; 72 h
Method in brief: as §1

| SMILES | relative IC50 [1] [nM] | relative IC50 ([2]; 4-OH-tamoxifen in medium 0 µM) [nM] | relative IC50 ([2]; 4-OH-tamoxifen in medium 1 µM) [nM] | relative IC50 [3] [nM] | relative IC50 ([4]; 4-OH-tamoxifen in medium 0 µM) [nM] | relative IC50 ([4]; 4-OH-tamoxifen in medium 1 µM) [nM] | relative IC50 ([5]; 4-OH-tamoxifen in medium 0 µM) [nM] | relative IC50 ([5]; 4-OH-tamoxifen in medium 1 µM) [nM] | relative IC50 [6] [nM] | relative IC50 [10] [nM] | relative IC50 [22] [nM] | relative IC50 [7] [nM] | relative IC50 ([8]; 4-OH-tamoxifen in medium 0 µM) [nM] | relative IC50 ([8]; 4-OH-tamoxifen in medium 1 µM) [nM] | relative IC50 [9] [nM] | drug sensitivity score [11] | drug sensitivity score [12] | drug sensitivity score ([13]; 4-OH-tamoxifen in medium 0 µM) | drug sensitivity score ([13]; 4-OH-tamoxifen in medium 1 µM) | drug sensitivity score [14] | drug sensitivity score ([15]; 4-OH-tamoxifen in medium 0 µM) | drug sensitivity score ([15]; 4-OH-tamoxifen in medium 1 µM) | drug sensitivity score ([16]; 4-OH-tamoxifen in medium 0 µM) | drug sensitivity score ([16]; 4-OH-tamoxifen in medium 1 µM) | drug sensitivity score [17] | drug sensitivity score [18] | drug sensitivity score ([19]; 4-OH-tamoxifen in medium 0 µM) | drug sensitivity score ([19]; 4-OH-tamoxifen in medium 1 µM) | drug sensitivity score [20] | drug sensitivity score [21] |
| --- | --- | --- | --- | --- | --- | --- | --- | --- | --- | --- | --- | --- | --- | --- | --- | --- | --- | --- | --- | --- | --- | --- | --- | --- | --- | --- | --- | --- | --- | --- |
| CN(C)C[C@@H]1CCn2cc(c3ccccc32)C2=C(C(=O)NC2=O)c2cn(c3ccccc23)CCO1 | 2530 | 1540 | 2780 | 2610 | 2350 | 2940 | 3260 | 1860 | 1590 | 1430 |  | 1400 | 1320 | 1560 | 942 | 1.31 | 4.71 | 6.79 | 6.1 | 6.47 | 7.13 | 4.11 | 4.1 | 8.42 | 9.22 | 3.13 | 4.14 | 6.47 | 4.71 | 6.85 |
| CCCCCCCCc1ccc(CCC(N)(CO)CO)cc1 [Fingolimod] | 3860 | 4090 | 3840 | 3390 | 2890 | 3910 | 3770 | 4050 | 4130 | 3780 |  | 3370 | 3930 | 3710 | 3490 | 0.0112 | 2.59 | 2.91 | 4.24 | 4.99 | 5.74 | 3.17 | 4.44 | 4.21 | 4.13 | 2.18 | 1.58 | 2.36 | 2.69 | 2.83 |
| O=C(CCCCCCC(=O)Nc1ccccc1)NO [Vorinostat] | 3060 | 2630 | 3670 | 1890 | 1430 | 1330 | 2310 | 1090 | 2430 | 1650 |  | 1650 | 2900 | 3660 | 2270 | 0.897 | 2.19 | 5.73 | 4.3 | 7.23 | 8.23 | 8.2 | 5.53 | 10.5 | 6.36 | 3.29 | 1.99 | 1.27 | 2.51 | 5.24 |

Now from value to compound, other results behind:

| relative IC50 [1] [nM] | relative IC50 ([2]; 4-OH-tamoxifen in medium 0 µM) [nM] | relative IC50 ([2]; 4-OH-tamoxifen in medium 1 µM) [nM] | relative IC50 [3] [nM] | relative IC50 ([4]; 4-OH-tamoxifen in medium 0 µM) [nM] | relative IC50 ([4]; 4-OH-tamoxifen in medium 1 µM) [nM] | relative IC50 ([5]; 4-OH-tamoxifen in medium 0 µM) [nM] | relative IC50 ([5]; 4-OH-tamoxifen in medium 1 µM) [nM] | relative IC50 [6] [nM] | relative IC50 [10] [nM] | relative IC50 [22] [nM] | SMILES | relative IC50 [7] [nM] | relative IC50 ([8]; 4-OH-tamoxifen in medium 0 µM) [nM] | relative IC50 ([8]; 4-OH-tamoxifen in medium 1 µM) [nM] | relative IC50 [9] [nM] | drug sensitivity score [11] | drug sensitivity score [12] | drug sensitivity score ([13]; 4-OH-tamoxifen in medium 0 µM) | drug sensitivity score ([13]; 4-OH-tamoxifen in medium 1 µM) | drug sensitivity score [14] | drug sensitivity score ([15]; 4-OH-tamoxifen in medium 0 µM) | drug sensitivity score ([15]; 4-OH-tamoxifen in medium 1 µM) | drug sensitivity score ([16]; 4-OH-tamoxifen in medium 0 µM) | drug sensitivity score ([16]; 4-OH-tamoxifen in medium 1 µM) | drug sensitivity score [17] | drug sensitivity score [18] | drug sensitivity score ([19]; 4-OH-tamoxifen in medium 0 µM) | drug sensitivity score ([19]; 4-OH-tamoxifen in medium 1 µM) | drug sensitivity score [20] | drug sensitivity score [21] |
| --- | --- | --- | --- | --- | --- | --- | --- | --- | --- | --- | --- | --- | --- | --- | --- | --- | --- | --- | --- | --- | --- | --- | --- | --- | --- | --- | --- | --- | --- | --- |
| 91.9 | 1600 |  | 155 | 86.8 | 189 | 53.6 | 78 | 80.2 | 498 |  | O=C(Cc1ccc(-c2ccc(OCCN3CCOCC3)cc2)cn1)NCc1ccccc1 [KX2-391] | 2190 | 53.1 | 779 | 1110 | 0 | 11.3 | 2.76 | 4.36 | 19.7 | 11.2 | 10.5 | 12.3 | 21.8 | 22 | 3.06 | 11.5 | 4.21 | 4.76 | 10.6 |
| > 10000 | > 10000 | > 10000 |  | > 10000 |  | > 10000 | > 10000 |  |  | > 10000 | CNC(=O)c1ccc(N2C(=S)N(c3ccc(C#N)c(C(F)(F)F)c3)C(=O)C2(C)C)cc1F [Enzalutamide (MDV 3100)] | > 10000 | > 10000 | > 10000 | > 10000 | 0 | 0 | 0 | 0 | 0.634 | 0 | 0.74 | 0 | 0 | 0 | 0 | 0 | 0 | 0 | 0 |
| 87.6 | 44.7 | 40.8 | 22 | 28.7 | 35.2 | 19.7 | 10.6 | 17.1 | 47.5 |  | Cc1[nH]c2ccccc2c1CCNCc1ccc(/C=C/C(=O)NO)cc1 [Panobinostat] | 64.7 | 32.7 | 81.7 | 49.6 | 1.73 | 8.64 | 15.5 | 15.9 | 17.2 | 16.3 | 15.2 | 17.8 | 23.3 | 19.8 | 5.02 | 8.15 | 4.19 | 7.47 | 12.7 |
| > 10000 | > 10000 | > 10000 |  | > 10000 |  | > 10000 | > 10000 | > 10000 |  | > 10000 | Oc1nc(-c2ccc(C(F)(F)F)cc2)nc2c1CSCC2 [XAV-939] | > 10000 | > 10000 | > 10000 |  | 0 | 0 | 0 | 0 | 3.71 | 0 | 0.115 | 0 | 0 | 0 | 0 | 0 | 0 | 0.39 | 3.2 |
